# Measured values taken from PubChem BioAssay AID1963423 (Molecular Pharmacology Branch, DTP, NCI, 2024).
# System: 439559-082-T-J2-PDC complex spheroid growth
# Assay: Anticancer human tumor 439559-082-T-J2-PDC patient-derived colon adenocarcinoma cell line growth inhibition [Asc]
# Details: for IC50: curve of first compound; for viability, T/C: stronger effect = lower value
# Method in brief: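 Spheroid model: tumor line + HUVEC + hMSC. Single agents and combinations; top conc. at/near clinical Cmax (10 microM if undetermined), half-log dilutions. DMSO stocks at 800-fold test concentration.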
# [1] = second compound 0.1 µM, first compound 0.00316 µM
# [2] = second compound 0.1 µM, first compound 0.01 µM
# [3] = second compound 0.1 µM, first compound 0.0316 µM
# [4] = second compound 0.1 µM, first compound 0.1 µM
# [5] = second compound 0.316 µM, first compound 0.00316 µM
# [6] = second compound 0.316 µM, first compound 0.01 µM
# [7] = second compound 0.316 µM, first compound 0.0316 µM
# [8] = second compound 0.316 µM, first compound 0.1 µM
# [9] = second compound 1 µM, first compound 0.00316 µM
# [10] = second compound 1 µM, first compound 0.01 µM
# [11] = second compound 1 µM, first compound 0.0316 µM
# [12] = second compound 1 µM, first compound 0.1 µM
# [13] = second compound 3.16 µM, first compound 0.00316 µM
# [14] = second compound 3.16 µM, first compound 0.01 µM
# [15] = second compound 3.16 µM, first compound 0.0316 µM
# [16] = second compound 3.16 µM, first compound 0.1 µM
# [17] = second compound 10 µM, first compound 0.00316 µM
# [18] = second compound 10 µM, first compound 0.01 µM
# [19] = second compound 10 µM, first compound 0.0316 µM
# [20] = second compound 10 µM, first compound 0.1 µM
# 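Also: spheroids exposed to agents for 7 days starting day 3 after seeding.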
# 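For viability, T/C in this document: percent of DMSO vehicle control viability with 100% = vehicle.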
smiles,measurement,setting,value
COc1c(OCCCN2CCOCC2)ccc2c3n(c(=NC(=O)c4cnc(N)nc4)nc12)CCN3 + Cc1c(S(C)(=O)=O)c(-c2cc(F)cc(N3CCN(c4ccc(NS(=O)(=O)c5ccc(NC(CCN6CCC(C(=O)OCCCP(=O)(O)O)CC6)CSc6ccccc6)c(S(=O)(=O)C(F)(F)F)c5)cc4)CC3)c2)c(-c2ccc(Cl)cc2)n1C(C)C,IC50,second compound 0.1 µM,> 1000 nM
same,IC50,second compound 0.316 µM,> 1000 nM
same,IC50,second compound 1 µM,> 1000 nM
same,IC50,second compound 3.16 µM,312 nM
same,IC50,second compound 10 µM,101 nM
same,"viability, T/C",[1],97.8%
same,"viability, T/C",[2],98.6%
same,"viability, T/C",[3],85.8%
same,"viability, T/C",[4],63.8%
same,"viability, T/C","second compound 0.1 µM, first compound 0.316 µM",67.1%
same,"viability, T/C","second compound 0.1 µM, first compound 1 µM",55%
same,"viability, T/C",[5],95.9%
same,"viability, T/C",[6],97.9%
same,"viability, T/C",[7],90.8%
same,"viability, T/C",[8],63.4%
same,"viability, T/C","second compound 0.316 µM, first compound 0.316 µM",62%
same,"viability, T/C","second compound 0.316 µM, first compound 1 µM",54.1%
same,"viability, T/C",[9],90.2%
same,"viability, T/C",[10],89.7%
same,"viability, T/C",[11],82.6%
same,"viability, T/C",[12],64.6%
same,"viability, T/C","second compound 1 µM, first compound 0.316 µM",59%
same,"viability, T/C","second compound 1 µM, first compound 1 µM",49.7%
same,"viability, T/C",[13],85.6%
same,"viability, T/C",[14],84.8%
same,"viability, T/C",[15],79.9%
same,"viability, T/C",[16],59.5%
same,"viability, T/C","second compound 3.16 µM, first compound 0.316 µM",50.8%
same,"viability, T/C","second compound 3.16 µM, first compound 1 µM",48%
same,"viability, T/C",[17],69%
same,"viability, T/C",[18],84.7%
same,"viability, T/C",[19],72%
same,"viability, T/C",[20],50.4%
same,"viability, T/C","second compound 10 µM, first compound 0.316 µM",36.9%
same,"viability, T/C","second compound 10 µM, first compound 1 µM",37.2%
NC(=O)C(=Cn1cnc(-c2cc(C(F)(F)F)cc(C(F)(F)F)c2)n1)c1cncnc1 + Cc1c(S(C)(=O)=O)c(-c2cc(F)cc(N3CCN(c4ccc(NS(=O)(=O)c5ccc(NC(CCN6CCC(C(=O)OCCCP(=O)(O)O)CC6)CSc6ccccc6)c(S(=O)(=O)C(F)(F)F)c5)cc4)CC3)c2)c(-c2ccc(Cl)cc2)n1C(C)C,IC50,second compound 0.1 µM,> 300 nM
same,IC50,second compound 0.316 µM,> 300 nM
same,IC50,second compound 1 µM,> 300 nM
same,IC50,second compound 3.16 µM,> 300 nM
same,IC50,second compound 10 µM,> 300 nM
same,"viability, T/C","second compound 0.1 µM, first compound 0.000949 µM",92%
same,"viability, T/C","second compound 0.1 µM, first compound 0.003 µM",115%
same,"viability, T/C","second compound 0.1 µM, first compound 0.00949 µM",92.9%
same,"viability, T/C","second compound 0.1 µM, first compound 0.03 µM",87%
same,"viability, T/C","second compound 0.1 µM, first compound 0.0949 µM",82.7%
same,"viability, T/C","second compound 0.1 µM, first compound 0.3 µM",82.5%
same,"viability, T/C","second compound 0.316 µM, first compound 0.000949 µM",100%
same,"viability, T/C","second compound 0.316 µM, first compound 0.003 µM",101%
same,"viability, T/C","second compound 0.316 µM, first compound 0.00949 µM",94.9%
same,"viability, T/C","second compound 0.316 µM, first compound 0.03 µM",82.8%
same,"viability, T/C","second compound 0.316 µM, first compound 0.0949 µM",84.2%
same,"viability, T/C","second compound 0.316 µM, first compound 0.3 µM",75.5%
same,"viability, T/C","second compound 1 µM, first compound 0.000949 µM",92.8%
same,"viability, T/C","second compound 1 µM, first compound 0.003 µM",98.2%
same,"viability, T/C","second compound 1 µM, first compound 0.00949 µM",91.1%
same,"viability, T/C","second compound 1 µM, first compound 0.03 µM",78%
same,"viability, T/C","second compound 1 µM, first compound 0.0949 µM",75.7%
same,"viability, T/C","second compound 1 µM, first compound 0.3 µM",67.4%
same,"viability, T/C","second compound 3.16 µM, first compound 0.000949 µM",87%
same,"viability, T/C","second compound 3.16 µM, first compound 0.003 µM",93.8%
same,"viability, T/C","second compound 3.16 µM, first compound 0.00949 µM",94.7%
same,"viability, T/C","second compound 3.16 µM, first compound 0.03 µM",75.3%
same,"viability, T/C","second compound 3.16 µM, first compound 0.0949 µM",69.4%
same,"viability, T/C","second compound 3.16 µM, first compound 0.3 µM",64.5%
same,"viability, T/C","second compound 10 µM, first compound 0.000949 µM",76.3%
same,"viability, T/C","second compound 10 µM, first compound 0.003 µM",73.6%
same,"viability, T/C","second compound 10 µM, first compound 0.00949 µM",75%
same,"viability, T/C","second compound 10 µM, first compound 0.03 µM",63.8%
same,"viability, T/C","second compound 10 µM, first compound 0.0949 µM",54.8%
same,"viability, T/C","second compound 10 µM, first compound 0.3 µM",56.6%
NC1CCC(NC2CC2c2ccccc2)CC1 (stereo not given) + Cc1c(S(C)(=O)=O)c(-c2cc(F)cc(N3CCN(c4ccc(NS(=O)(=O)c5ccc(NC(CCN6CCC(C(=O)OCCCP(=O)(O)O)CC6)CSc6ccccc6)c(S(=O)(=O)C(F)(F)F)c5)cc4)CC3)c2)c(-c2ccc(Cl)cc2)n1C(C)C,IC50,second compound 0.1 µM,> 100 nM
same,IC50,second compound 0.316 µM,> 100 nM
same,IC50,second compound 1 µM,> 100 nM
same,IC50,second compound 3.16 µM,> 100 nM
same,IC50,second compound 10 µM,> 100 nM
same,"viability, T/C","second compound 0.1 µM, first compound 0.000316 µM",101%
same,"viability, T/C","second compound 0.1 µM, first compound 0.001 µM",115%
same,"viability, T/C",[1],100%
same,"viability, T/C",[2],93.1%
same,"viability, T/C",[3],113%
same,"viability, T/C",[4],102%
same,"viability, T/C","second compound 0.316 µM, first compound 0.000316 µM",99.4%
same,"viability, T/C","second compound 0.316 µM, first compound 0.001 µM",114%
same,"viability, T/C",[5],104%
same,"viability, T/C",[6],103%
same,"viability, T/C",[7],105%
same,"viability, T/C",[8],113%
same,"viability, T/C","second compound 1 µM, first compound 0.000316 µM",96.6%
same,"viability, T/C","second compound 1 µM, first compound 0.001 µM",107%
same,"viability, T/C",[9],117%
same,"viability, T/C",[10],89.7%
same,"viability, T/C",[11],97.8%
same,"viability, T/C",[12],104%
same,"viability, T/C","second compound 3.16 µM, first compound 0.000316 µM",95.2%
same,"viability, T/C","second compound 3.16 µM, first compound 0.001 µM",108%
same,"viability, T/C",[13],109%
same,"viability, T/C",[14],90.8%
same,"viability, T/C",[15],89.9%
same,"viability, T/C",[16],104%
same,"viability, T/C","second compound 10 µM, first compound 0.000316 µM",88.3%
same,"viability, T/C","second compound 10 µM, first compound 0.001 µM",96.4%
same,"viability, T/C",[17],87.1%
same,"viability, T/C",[18],88.2%
same,"viability, T/C",[19],85.1%
same,"viability, T/C",[20],86%
